Patent US4208424A, “Lipogenesis inhibition by certain esters of substituted benzodioxincarboxylic acids” (Shell Oil Company, priority 1979, dated 1980)

Tested on: lipogenesis in swine adipose tissue
Assay: inhibition of lipogenesis (incorporation of radioactive glucose carbon into lipid) in swine adipose tissue slices
Assay type: cell-based
Settings: 100 micrograms per milliliter, 37° C., 2 hours, glucose-U^14 C, insulin, 5% DMSO, triplicate
Description: The manner in which they cause this effect is not known with certainty; it is believed that they interfere with the synthesis of fatty acids in the tissues. Their effectiveness for this purpose has been ascertained by immersing samples of swine adipose tissue in a liquid medium containing radioactive glucose and the test chemical for a period of time, then isolating the lipid from the treated tissue and determining the incorporation of the radioactive carbon into lipid by means of scintillation counting techniques. These tests were conducted in swine adipose tissues because in swine, the primary site of lipogenesis--i.e., fatty acid synthesis--appears to be adipose tissue.
Described in more detail, the tests were conducted according to the following general procedure:
150 milligrams of slices of swine adipose tissue were incubated at 37° C. for 2 hours with shaking in 3 milliliters of Krebs-Ringer bicarbonate solution containing one-half the normal calcium ion concentration, 60 micromoles of glucose, 0.5 micro-Curie of glucose-U^14 C, and 300 microunits of insulin, and 5% dimethyl sulfoxide (DMSO). The test compounds were added as a solution or suspension in DMSO and were present at a concentration of 100 micrograms per milliliter of the incubation mixture.
The incubation was terminated by addition of 0.25 milliliter of 1 N sulfuric acid. The resulting mixture was extracted with a total of 25 milliliters of chloroform/methanol (2:1 v/v). The extracts were washed according to Folch et al. (J. Biol. Chem. 226, 497-509, (1957)), air dried, and counted in a liquid scintillation counter with 15 m milliliters of counting fluid (two parts toluene containing 0.4% w/v New England Nuclear Omnifluor/1 part Triton X-100). The tests were conducted in triplicate and were accompanied by control tests in which all ingredients,proportions and conditions were the same except that no test compound was included. From the data obtained were calculated the percent inhibition of lipid synthesis by the test compounds in each case. The data obtained from the tests are set out in Table 1, as the percent inhibition of lipogenesis compared to the results obtained in the control tests wherein only the test compound was omitted.

Compound	Percent Inhibition (of lipogenesis compared to control tests)
CCOC(=O)C1COc2ccccc2O1 (stereo not shown) [Compound 1, Ethyl 2,3-dihydro-1,4-benzodioxin-2-carboxylate]	22%
CCOC(=O)C1COc2cc(C)c(C)cc2O1 (stereo not shown) [Compound 6, Ethyl 2,3-dihydro-6,7-dimethyl-1,4-benzodioxin-2-carboxylate]	29%
CCOC(=O)C1COc2cc(-c3ccccc3)ccc2O1 (stereo not shown) [Compound 7, Ethyl 2,3-dihydro-6-phenyl-1,4-benzodioxin-2-carboxylate]	21%
CCOC(=O)C1COc2ccc(-c3ccccc3)cc2O1 (stereo not shown) [Compound 8, Ethyl 2,3-dihydro-7-phenyl-1,4-benzodioxin-2-carboxylate]	28%
CCOC(=O)C1COc2ccc(C(C)O)cc2O1 (stereo not shown) [Compound 9, Ethyl 2,3-dihydro-7-(1-hydroxyethyl)-1,4-benzodioxin-2-carboxylate]	90%
Ethyl 2,3-dihydro-6(and 7)-fluoro-1,4-benzodioxin-2-carboxylate [Compound 3]	48%
Ethyl 2,3-dihydro-6(and 7)-methoxy-1,4-benzodioxin-2-carboxylate [Compound 10]	85%
Ethyl 2,3-dihydro-6(and 7)-methyl-1,4-benzodioxin-2-carboxylate [Compound 2]	30%
Ethyl 2,3-dihydro-8(and 5)-methoxy-1,4-benzodioxin-2-carboxylate [Compound 5]	86%
Ethyl 6(and 7)-bromo-2,3-dihydro-1,4-benzodioxin-2-carboxylate [Compound 4]	43%
